Results on three compounds are retold here after patent US6586633B1, “Amine derivatives” (Pola Chemical Industries, Inc., priority 2001, dated 2003).

Common to all, as to assay: Measurement of antifungal activity (minimum inhibitory concentration), agar dilution
Holding throughout (assay type): cell-based

Assay [1] has as its system M. gypseum IF08231. As to conditions: Nannizzia gypsea, 168 h; M. gypseum IF08231 (Table 2); Sabouraud's agar, one week at 27° C.; read-out: MIC value (minimum compound concentration that definitely inhibited any visible growth). The method, then:
(§1) Measurement of Antifungal Activity (Measurement of Minimum Inhibitory Concentration)
(§2) Antifungal activity of representative compounds of the present invention against dermatophytes was investigated.
(§3) Briefly, strains of dermatophytes to be tested were grown on slant media prepared with Sabouraud's agar (product of Nissuiseiyaku; pepton 1.0%, glucose 4.0%, agar 1.5%, pH 5.9) at 27° C. for two weeks, so as to allow sufficient production of conidiospores. Subsequently, sterilized saline solution containing 0.05% (wt/vol) TWEEN 80 was added thereto, and while the surface of the each medium was scraped with a platinum loop, the conidiospores were deaggregated and suspended in the saline solution. The suspension was filtered through a double face sterilized gauze sheet so as to remove agar and hypha pellets. The filtrate was diluted with a saline solution so as to make the concentration of the conidiospores decrease to 10^6/ml by use of a cytometer, and the resultant dilute filtrate served as a test dermatophytes solution. Meanwhile, a stock solution was prepared by adding 1 ml of dimethylsulfoxide to 10 mg of a compound to be tested. An aliquot (500 μl) of the stock solution was combined with dimethylsulfoxide (500 μl), to thereby prepare a 2-fold dilute solution. Dilution was similarly repeated until 13 different dilute solutions ranging from 10 to 0.0025 mg/ml (concentrations of the ultimate test system: 100-0.025 μg/ml) were obtained. 100 μl each of the diluted solutions of the test compound was dispensed into the sterilized petri dish. A Sabouraud's agar (pepton 1.0%, glucose 4.0%, agar 1.5%, pH 5.9; 10 ml), which had been sterilized and dissolved, was added thereto, and the mixture was thoroughly mixed and solidified. Next, the above-prepared test dermatophytes solution was planted in amounts of 5 μl by use of a microplanter.

The subject of assay [2] is T. mentagrophytes IF07552. As to conditions: Trichophyton mentagrophytes, 168 h, Sabouraud's agar, one week at 27° C., read-out: MIC value (minimum compound concentration that definitely inhibited any visible growth). The method, then: as §1, §2, §3
Assay [3] concerns T. rubrum IF09185. The settings on record: Trichophyton rubrum, 168 h, Sabouraud's agar, one week at 27° C., read-out: MIC value (minimum compound concentration that definitely inhibited any visible growth). On the procedure: as §1, §2, §3
The test system of assay [4] is T. mentagrophytes IF05811. The settings on record: Trichophyton mentagrophytes, 168 h, Sabouraud's agar, one week at 27° C., read-out: MIC value (minimum compound concentration that definitely inhibited any visible growth). On the procedure:
as §1, §2, §3

For assay [5], the system named is T. rubrum IF05808. The settings on record: Trichophyton rubrum, 168 h, Sabouraud's agar, one week at 27° C., read-out: MIC value (minimum compound concentration that definitely inhibited any visible growth). The method, then: as §1, §2, §3
Assay [6] concerns T. violaceum TIMM1264. As to conditions: Trichophyton violaceum, 168 h, Sabouraud's agar, one week at 27° C., read-out: MIC value (minimum compound concentration that definitely inhibited any visible growth). The method, then: as §1, §2, §3
Assay [7] concerns T. mentagrophytes TIMM1189. The settings on record: Trichophyton mentagrophytes, 168 h, Sabouraud's agar, one week at 27° C., read-out: MIC value (minimum compound concentration that definitely inhibited any visible growth). The method, then: as §1, §2, §3
For assay [8], the system named is T. mentagrophytes TIMM1177. As to conditions: Trichophyton mentagrophytes, 168 h, Sabouraud's agar, one week at 27° C., read-out: MIC value (minimum compound concentration that definitely inhibited any visible growth). On the procedure:
as §1, §2, §3

In assay [9] the test system is M. canis TIMM0760. The settings on record: Microsporum canis, 168 h, Sabouraud's agar, one week at 27° C., read-out: MIC value (minimum compound concentration that definitely inhibited any visible growth). The method, then: as §1, §2, §3

For the compound `C=C(CC)c1cccc(CN(C)Cc2ccc(C(C)(C)C)cc2)c1.Cl` [Compound 95, N-(4-tert-Butylbenzyl)-N-methyl-[3-(1-ethylvinyl)benzyl]amine Hydrochloride], the MIC worked out at 3.12 µg/mL in assay [1]; 0.78 µg/mL in assay [2]; 0.39 µg/mL in assay [3]; 1.56 µg/mL in assay [4]; 0.39 µg/mL in [5]; 0.78 µg/mL in assay [6]. Further, the MIC worked out at 0.78 µg/mL in assay [7], 0.78 µg/mL in assay [8] and 0.2 µg/mL in assay [9].

For `C=C(C)c1cccc(CN(CC)Cc2ccc(C(C)(C)C)cc2)c1.Cl` [Compound 114, N-(4-tert-Butylbenzyl)-N-ethyl-(3-isopropenylbenzyl)amine Hydrochloride], the MIC in [1] is 0.2 µg/mL; in assay [2], 0.39 µg/mL; in assay [3] it was 0.2 µg/mL; in assay [4], 0.78 µg/mL; in [5] it was 0.2 µg/mL; in assay [6] it was 0.39 µg/mL. For the same compound, the results for the MIC in assay [7], in assay [8] and in assay [9] were 0.39 µg/mL, 0.39 µg/mL and 0.2 µg/mL, respectively.

`C=C(C)c1cc(F)cc(CN(C)Cc2ccc(C(C)(C)C)cc2)c1.Cl` [Compound 101, N-(4-tert-Butylbenzyl)-N-methyl-(3-fluoro-5-isopropenylbenzyl)amine Hydrochloride]: the MIC in [1] stood at 0.2 µg/mL; in [2] it was 0.1 µg/mL; in assay [3], 0.1 µg/mL; in assay [4], 0.1 µg/mL; in assay [5] it was 0.05 µg/mL; in assay [6], 0.1 µg/mL. Moreover, the results for the MIC in assay [7], in assay [8] and in assay [9] were 0.1 µg/mL, 0.2 µg/mL and 0.1 µg/mL, respectively.
